Results: patent US9290451B2 (Hoffmann-La Roche Inc., priority 2011, dated 2016)

Experiments:
human CB1 receptors = human CB1 receptors (Homo sapiens (Human), UniProt P21554); experiment: cAMP assay, CHO cells expressing human CB1 receptors; type: cell-based; conditions: CHO cells expressing human CB1, cAMP; read-out: human CB1 EC50
Outline: (§1)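 CHO cells, KRB buffer + 1 mM IBMX, 30 min 30 °C preincubation; compound 30 min 30 °C; lysis + TR-FRET cAMP detection, 2 h RT; cAMP from standard curve (10 μM–0.13 nM); EC50.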

human CB2 receptors = human CB2 receptors (Homo sapiens (Human), UniProt P34972); experiment: cAMP assay, CHO cells expressing human CB2 receptors; type: cell-based; conditions: CHO cells expressing human CB2, cAMP; read-out: human CB2 EC50
human CB2 receptors, sequence (P34972 whole entry): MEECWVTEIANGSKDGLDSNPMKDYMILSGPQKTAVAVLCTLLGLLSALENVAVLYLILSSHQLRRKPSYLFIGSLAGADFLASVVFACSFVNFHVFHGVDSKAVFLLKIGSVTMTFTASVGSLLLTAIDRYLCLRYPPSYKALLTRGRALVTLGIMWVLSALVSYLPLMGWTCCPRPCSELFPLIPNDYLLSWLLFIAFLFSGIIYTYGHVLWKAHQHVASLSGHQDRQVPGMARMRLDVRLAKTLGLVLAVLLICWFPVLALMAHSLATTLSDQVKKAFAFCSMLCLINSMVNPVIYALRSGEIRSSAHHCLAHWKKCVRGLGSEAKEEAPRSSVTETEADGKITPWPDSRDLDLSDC
Outline: as §1

human CB1 receptors, sequence (P21554 whole entry): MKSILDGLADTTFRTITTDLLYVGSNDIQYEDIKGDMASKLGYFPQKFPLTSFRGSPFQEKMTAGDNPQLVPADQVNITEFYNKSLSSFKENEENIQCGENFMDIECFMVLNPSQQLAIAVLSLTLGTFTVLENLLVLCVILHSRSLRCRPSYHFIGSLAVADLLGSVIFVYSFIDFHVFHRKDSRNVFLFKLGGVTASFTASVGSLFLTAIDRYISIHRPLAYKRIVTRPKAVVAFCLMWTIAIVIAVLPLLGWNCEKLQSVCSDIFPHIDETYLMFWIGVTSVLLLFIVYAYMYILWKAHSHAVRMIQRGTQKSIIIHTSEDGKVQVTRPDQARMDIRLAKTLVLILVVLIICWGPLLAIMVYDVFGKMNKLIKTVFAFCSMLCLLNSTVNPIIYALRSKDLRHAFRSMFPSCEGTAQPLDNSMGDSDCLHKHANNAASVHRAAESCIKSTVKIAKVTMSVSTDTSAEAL

Work on `Cc1nc(C(C)(C)NC(=O)c2ccc(C3CCOC3)c(-c3cccc(Cl)c3)n2)no1` (stereo not drawn) [Example 151, 6-(3-Chloro-phenyl)-5-(tetrahydro-furan-3-yl)-pyridine-2-carboxylic acid [1-methyl-1-(5-methyl-[1,2,4]oxadiazol-3-yl)-ethyl]-amide] yielded an EC50 (human CB1 receptors) of over 10 µM and an EC50 (human CB2 receptors) of 0.351 µM.
Molecule `CNC(=O)[C@H](CC(C)C)NC(=O)c1cccc(-c2cccc(F)c2)n1` [Example 210, (S)-6-(3-Fluorophenyl)-N-(4-methyl-1-(methylamino)-1-oxopentan-2-yl)picolinamide] has an EC50 (human CB1 receptors) of over 10 µM and an EC50 (human CB2 receptors) of 0.062 µM.
Molecule `CC(C)C[C@H](NC(=O)c1ccc(N2CC(F)(F)C2)c(OCC2CC2)n1)C(=O)N1CC(F)(F)C1` [Example 311, 6-Cyclopropylmethoxy-5-(3,3-difluoro-azetidin-1-yl)-pyridine-2-carboxylic acid [(S)-1-(3,3-difluoro-azetidine-1-carbonyl)-3-methyl-butyl]-amide] has an EC50 (human CB1 receptors) of over 10 µM and an EC50 (human CB2 receptors) of 0.0084 µM.
`CN(C)C(=O)C(NC(=O)c1ccc(N2CC(F)(F)C2)c(OCC2CC2)n1)c1ccccc1` (stereo not drawn) [Example 255, 6-Cyclopropylmethoxy-5-(3,3-difluoro-azetidin-1-yl)-pyridine-2-carboxylic acid (dimethylcarbamoyl-phenyl-methyl)-amide] gave an EC50 (human CB1 receptors) of over 10 µM and an EC50 (human CB2 receptors) of 0.0613 µM.
`CC[C@H](NC(=O)c1ccc(C2CC2)c(OCC2CC2)n1)c1noc(C)n1` [Example 244, 5-Cyclopropyl-6-cyclopropylmethoxy-pyridine-2-carboxylic acid [(+)-1-(5-methyl-[1,2,4]oxadiazol-3-yl)-propyl]-amide] was tested, and the EC50 (human CB1 receptors) was over 10 µM and the EC50 (human CB2 receptors) was 0.0141 µM.
With `COC(=O)[C@H](CC(C)C)NC(=O)c1ccc(C2CC2)c(OCC2CC2)n1` [Example 270, (S)-2-[(5-Cyclopropyl-6-cyclopropylmethoxy-pyridine-2-carbonyl)-amino]-4-methyl-pentanoic acid methyl ester] the EC50 (human CB1 receptors) was 0.0914 µM and the EC50 (human CB2 receptors) was 0.0013 µM.
`Cc1nc(C(C)(C)NC(=O)c2ccc(C3CC3)c(OC(C)C(F)(F)F)n2)no1` (stereo not drawn) [Example 373, 5-Cyclopropyl-6-(2,2,2-trifluoro-1-methyl-ethoxy)-pyridine-2-carboxylic acid [1-methyl-1-(5-methyl-[1,2,4]oxadiazol-3-yl)-ethyl]-amide] gave an EC50 (human CB1 receptors) of over 10 µM and an EC50 (human CB2 receptors) of 0.127 µM.
Molecule `CC(C)C[C@H](NC(=O)c1ccc(C2CC2)c(Cc2ccc(F)cc2)n1)C(=O)O` [Example 336, (S)-2-{[5-Cyclopropyl-6-(4-fluoro-benzyl)-pyridine-2-carbonyl]-amino}-4-methyl-pentanoic acid] has an EC50 (human CB1 receptors) of over 10 µM and an EC50 (human CB2 receptors) of 0.239 µM.
With `O=C(NN1CCCOC1=O)c1ccc(C2CC2)c(OCC2CC2)n1` [Example 371, 5-Cyclopropyl-6-cyclopropylmethoxy-pyridine-2-carboxylic acid (2-oxo-[1,3]oxazinan-3-yl)-amide] the EC50 (human CB1 receptors) was over 10 µM and the EC50 (human CB2 receptors) was 0.436 µM.
`CC(C)(NC(=O)c1ccc(C2CC2)c(OCC2CC2)n1)c1ccccn1` [Example 285, 5-Cyclopropyl-6-cyclopropylmethoxy-pyridine-2-carboxylic acid (1-methyl-1-pyridin-2-yl-ethyl)-amide] gave an EC50 (human CB1 receptors) of 0.703 µM and an EC50 (human CB2 receptors) of 0.0316 µM.
`COCCOc1nc(C(=O)N[C@@H](CC2CC2)C(N)=O)ccc1C1CC1` [Example 161, 5-Cyclopropyl-6-(2-methoxy-ethoxy)-pyridine-2-carboxylic acid ((S)-1-carbamoyl-2-cyclopropyl-ethyl)-amide] gave an EC50 (human CB1 receptors) of over 10 µM and an EC50 (human CB2 receptors) of 0.124 µM.
Molecule `CC(C)CC(NC(=O)c1ccc(N2CC(F)(F)C2)c(OCC2CC2)n1)c1ccccn1` (stereo not drawn) [Example 315, 6-Cyclopropylmethoxy-5-(3,3-difluoro-azetidin-1-yl)-pyridine-2-carboxylic acid (3-methyl-1-pyridin-2-yl-butyl)-amide] has an EC50 (human CB1 receptors) of 2.32 µM and an EC50 (human CB2 receptors) of 0.191 µM.
Molecule `CCC(CC)(NC(=O)c1ccc(C2CC2)c(Cc2ccc(F)cc2)n1)C(=O)O` [Example 333, 2-{[5-Cyclopropyl-6-(4-fluoro-benzyl)-pyridine-2-carbonyl]-amino}-2-ethyl-butyric acid] has an EC50 (human CB1 receptors) of 0.081 µM and an EC50 (human CB2 receptors) of 0.008 µM.
With `CC(C)C[C@H](NC(=O)c1ccc(C2CC2)c(OCC2CC2)n1)C(N)=O` [Example 100, 5-Cyclopropyl-6-cyclopropylmethoxy-pyridine-2-carboxylic acid ((S)-1-carbamoyl-3-methyl-butyl)-amide] the EC50 (human CB1 receptors) was 0.801 µM and the EC50 (human CB2 receptors) was 0.0012 µM.
`CNC(=O)C(C)(C)NC(=O)c1ccc(C2CC2)c(OCC2CC2)n1` [Example 43, 5-Cyclopropyl-6-cyclopropylmethoxy-pyridine-2-carboxylic acid (1-methyl-1-methylcarbamoyl-ethyl)-amide] was tested, and the EC50 (human CB1 receptors) was over 10 µM and the EC50 (human CB2 receptors) was 0.275 µM.
Molecule `CC(C)C[C@H](NC(=O)c1ccc(C2CC2)c(OCC2CC2)n1)C(=O)OC(C)(C)C` [Example 366, (S)-2-[(5-Cyclopropyl-6-cyclopropylmethoxy-pyridine-2-carbonyl)-amino]-4-methyl-pentanoic acid tert-butyl ester] has an EC50 (human CB1 receptors) of over 10 µM and an EC50 (human CB2 receptors) of 0.0264 µM.
Molecule `Cc1ccc(C(=O)NC(C)(C)c2nccs2)nc1OCC1CC1` [Example 62, 6-Cyclopropylmethoxy-5-methyl-pyridine-2-carboxylic acid (1-methyl-1-thiazol-2-yl-ethyl)-amide] has an EC50 (human CB1 receptors) of 0.561 µM and an EC50 (human CB2 receptors) of 0.0115 µM.
For `CC1(NC(=O)c2ccc(N3CC(F)(F)C3)c(OCC3CC3)n2)COC1` [Example 370, 6-Cyclopropylmethoxy-5-(3,3-difluoro-azetidin-1-yl)-pyridine-2-carboxylic acid (3-methyl-oxetan-3-yl)-amide], the EC50 (human CB1 receptors) was over 10 µM and the EC50 (human CB2 receptors) was 0.0964 µM.
With `O=C(NC1CCCCC1O)c1ccc(N2CC(F)(F)C2)c(OCC2CC2)n1` (stereo not drawn) [Example 137, 6-Cyclopropylmethoxy-5-(3,3-difluoro-azetidin-1-yl)-pyridine-2-carboxylic acid (2-hydroxy-cyclohexyl)-amide] the EC50 (human CB1 receptors) was over 10 µM and the EC50 (human CB2 receptors) was 0.211 µM.
Work on `O=C(NC1CCCCC1CO)c1cccc(C2CCCCC2)n1` (stereo not drawn) [Example 122, 6-Cyclohexyl-pyridine-2-carboxylic acid (2-hydroxymethyl-cyclohexyl)-amide] yielded an EC50 (human CB1 receptors) of over 10 µM and an EC50 (human CB2 receptors) of 0.158 µM.
With `CCOC(=O)C(CC)(CC)NC(=O)c1ccc(N2CCCC2)c(OCC2CC2)n1` [Example 289, 2-[(6-Cyclopropylmethoxy-5-pyrrolidin-1-yl-pyridine-2-carbonyl)-amino]-2-ethyl-butyric acid ethyl ester] the EC50 (human CB1 receptors) was 0.234 µM and the EC50 (human CB2 receptors) was 0.0014 µM.
In the case of `Cc1nc([C@H](CC2CC2)NC(=O)c2ccc(C3CCCC3)c(OCC3CC3)n2)no1` [Example 53, 5-Cyclopentyl-6-cyclopropylmethoxy-pyridine-2-carboxylic acid [(S)-2-cyclopropyl-1-(5-methyl-[1,2,4]oxadiazol-3-yl)-ethyl]-amide], the EC50 (human CB1 receptors) is reported as over 10 µM and the EC50 (human CB2 receptors) is reported as 0.0457 µM.
With `CNC(=O)[C@@H](NC(=O)c1ccc(C2CC2)c(OCC2CC2)n1)C(C)(C)C` [Example 168, (S)-5-Cyclopropyl-6-(cyclopropylmethoxy)-N-(3,3-dimethyl-1-(methylamino)-1-oxobutan-2-yl)picolinamide] the EC50 (human CB1 receptors) was 0.313 µM and the EC50 (human CB2 receptors) was 0.0006 µM.
In the case of `CC(C)CSc1nc(C(=O)N[C@@H](CC(C)C)C(N)=O)ccc1C1CC1` [Example 346, 5-Cyclopropyl-6-isobutylsulfanyl-pyridine-2-carboxylic acid ((S)-1-carbamoyl-3-methyl-butyl)-amide], the EC50 (human CB1 receptors) is reported as over 10 µM and the EC50 (human CB2 receptors) is reported as 0.011 µM.
